Measurements from paper PMC10673308, “Unusual Oligomeric Laccase-like Oxidases from Ascomycete Curvularia geniculata VKM F-3561 Polymerizing Phenylpropanoids and Phenolic Compounds under Neutral Environmental Conditions” (Microorganisms, 2023).

How the values were obtained:
[1] = tested on: T1, oxidase I (laccase-like oxidase I of C. geniculata VKM F-3561); test: spectrophotometric oxidation assay; type: biochemical, Curvularia geniculata; conditions: apparent, error < 10%
T1 construct: native, purified from culture liquid; glycosylated oligomer about 1035 kDa, subunit about 63 kDa deglycosylated
Excerpt: spectrophotometric oxidation assay on oxidase I (laccase-like oxidase I of C. geniculata VKM F-3561)

[2] = tested on: T2, oxidase II (laccase-like oxidase II of C. geniculata VKM F-3561); test: spectrophotometric oxidation assay; type: biochemical, Curvularia geniculata; conditions: apparent, error < 10%
T2 construct: native, purified from culture liquid; glycosylated oligomer about 870 kDa, subunit about 63 kDa deglycosylated
Excerpt: spectrophotometric oxidation assay on oxidase II (laccase-like oxidase II of C. geniculata VKM F-3561)

In the case of `COc1cc(/C=C/CO)ccc1O` [coniferyl alcohol], the Km ([1]; 50 mM Tris-HCl buffer pH 7.2) is reported as 130 µM and the Km ([2]; 50 mM Tris-HCl buffer pH 7.2) is reported as 125 µM.
`COc1cc(C=NN=Cc2cc(OC)c(O)c(OC)c2)cc(OC)c1O` [syringaldazine, 4-hydroxy-3,5-dimethoxybenzaldehyde azine] showed a Km ([1]; 50 mM Tris-HCl buffer pH 7.2) of 2.3 µM and a Km ([2]; 50 mM Tris-HCl buffer pH 7.2) of 46 µM.
`COc1cc(/C=C/C(=O)O)ccc1O` [ferulic acid] showed a Km ([1]; 50 mM Tris-HCl buffer pH 7.2) of 37.6 µM and a Km ([2]; 50 mM Tris-HCl buffer pH 7.2) of 51 µM.
With `CCn1c(=NN=c2sc3cc(S(=O)(=O)O)ccc3n2CC)sc2cc(S(=O)(=O)O)ccc21` [ABTS, 2,2′-azino-bis(3-ethylbenzothiazoline 6-sulfonic acid)] the Km ([1]; 20 mM Na-acetate buffer pH 5.0) was 280 µM and the Km ([2]; 20 mM Na-acetate buffer pH 5.0) was 152 µM.
`COc1cccc(OC)c1O` [2,6-dimethoxyphenol] showed a Km ([1]; 50 mM Tris-HCl buffer pH 7.2) of 26 µM and a Km ([2]; 50 mM Tris-HCl buffer pH 7.2) of 108 µM.
